From patent publication US20210052528A1, “THE USE OF SGC ACTIVATORS AND SGC STIMULATORS FOR THE TREATMENT OF COGNITIVE IMPAIRMENT” (Bayer Aktiengesellschaft, priority 2018, published 2021)
Where two headings read alike, the source gives them in different places.

Legend:
[1] = test system: male Wistar rats; assay: Object Location Task (OLT), learning and memory improvement in vivo; parameters: species or system rat; conditions: for memory performance, discrimination index (d2), compared with chance level (d2=0): one-sample t-test; for memory performance, discrimination index (d2), compared to the vehicle condition: one-way ANOVA, LSD t-tests; for dose with the most prominent effect in the memory test: object location task, rats, dose does not decrease blood pressure
From the text: Therefore, the well accepted Object Location Task (OLT) in rats was used. This task allows the assessment of acquisition, consolidation and retrieval of (spatial) information into memory, and is derived from the Object Recognition Task (ORT) (e.g. Ennaceur and Delacour, 1988; Prickaerts et al., 1997).
All experimental procedures were approved by the local ethical committee of Maastricht University for animal experiments and met governmental guidelines. […] The animals were housed individually in a standard IVC cage system on sawdust bedding in an air-conditioned room (about 20° C.). They were kept under a reversed 12/12 h light/dark cycle (lights on from 19.00 to 07.00) and had free access to food and water. Rats were housed and tested in the same room. A radio, which was playing softly, provided background noise in the room. All testing was done between 09.00 and 17.00.
The test compounds were freshly prepared on every experimental day and were dissolved in 0.5% Tylose solution (98% of the end volume) with 2% Tween80.
The order of the treatments was balanced to prevent the data from being distorted by potential object- and side-preferences of the animals.
The Object Location Task (OLT) was derived from the Object Recognition Test (ORT) (Ennaceur and Delacour, 1988). The OLT is a one-trial learning task which allows the assessment of spatial memory, and was performed as described elsewhere (Bruno et al., 2011, Vanmierlo et al., 2011). In the first (learning) trial a rat is put into an arena in which two identical objects are placed. After a certain delay, the rat is given a second trial. In this second trial the rat is again placed in the same arena but now one of the objects has been moved to a different position within the area. In other words, a new spatial arrangement is being used.
The apparatus consisted of a circular arena, 83 cm in diameter. The back-half of the 40 cm high arena wall was made of gray polyvinyl chloride, the front-half consisted of transparent polyvinyl chloride. The light intensity was equal in the different parts of the apparatus, as fluorescent red tubes provided a constant illumination of about 20 lux on the floor of the apparatus. In the first (learning) trial (T1), two objects were placed in a symmetrical position on a distance of about 10 cm from the wall of the left- and the right-side of the arena. In the second (test) trial (T2), one object is moved to a new location which is about 20 cm higher or lower than the original positon. Four different sets of objects were used. The different objects were: 1) a cone consisting of a gray polyvinyl chloride base (maximal diameter 18 cm) with a collar on top made of aluminum (total height 16 cm), 2) a standard 1 L brown glass bottle (diameter 10 cm, height 22 cm) filled with water, 3) a massive metal cube (10.0×5.0×7.5 cm) with two holes (diameter 1.9 cm), and 4) a solid aluminum cube with a tapering top (13.0×8.0×8.0 cm). Rats were unable to displace the objects.
A testing session consisted of two trials. The duration of each trial was 3 min. During the first trial (T1) the apparatus contained two identical objects. Rats were placed in the apparatus facing the wall at the middle of the front (transparent) segment. After the first exploration period the rat was put back in its home cage. Subsequently, after a 24 h delay interval, the rat was put in the apparatus for the second trial (T2). The total time an animal spent exploring each object during T1 and T2 was recorded manually with a personal computer.
Exploration was defined as follows: directing the nose to the object at a distance of no more than 2 cm and/or touching the object with the nose. Sitting on the object was not considered as exploratory behavior. A minimal amount of object interaction is required in order to achieve reliable object discrimination, therefore rats that explore less than 7 s in T1 and/or 9 s in T2 should be excluded from the analyses (Akkerman et al., 2012).

[2] = test system: normotensive Wistar rats; assay: Measurement of arterial blood pressure in vivo by radiotelemetry in conscious rats; parameters: species or system rat; conditions: over 24 hours; for effect on mean arterial blood pressure (MAP) over the dose range: all tested doses compared to vehicle
Experimental: Adult normotensive Wistar rats (Wistar HSD CPB:WU) with a body weight of 250 to 350 g were used for these experimental studies. All animals were housed in individual cages at 22-24° C. ambient temperature and maintained on a 12-hour light/dark cycle with free access to standard laboratory rat chow and water ad libitum. All animal experiments were done in accordance to the current national legislation (German protection of animals act and the EU directives on the protection of animals used for scientific purposes). All performed studies were approved by the regional regulatory authority (LANUV NRW in Germany) and by the institutional animal care and use committee of Bayer AG.
Blood pressure is monitored in freely moving conscious rats by radiotelemetry by a telemetric system (DSI Data Science International, MN, USA). A transmitters (TAI1PA-C40) is implanted in the abdomen of the rat during deep anaesthesia. After recovery of the rats, telemetric signals are registered by a receiver plate (RA1010) and compiled by a computer-based acquisition software (Dataquest A.R.T 4.1 for Windows).
After shaving the abdominal wall of the rat, a midline abdominal incision was made, and the fluid-filled sensor catheter was inserted upstream into the exposed descending aorta between the iliac bifurcation and the renal arteries. According to the DSI guidelines the tip of the telemetric catheter was located just caudal to the renal arteries and secured by tissue adhesive. The transmitter body was affixed to the inner peritoneal wall before closure of abdomen. A two-layer closure of the abdominal incision was used, with individual suturing of the peritoneum and the muscle wall followed by closure of the outer skin. Surgery was performed under aseptic conditions. For postsurgical protection against infections and pain a single dosage of an antibiotic (Oxytetracyclin® 10%, 60 mg/kg s.c., 0.06 ml/100 g body weight, Beta-Pharma GmbH & Co, Germany) and analgesic were injected (Rimadyl®, 4 mg/kg s.c., Pfizer, Germany).
After activation of the implanted transmitters, A.R.T., an on-line data acquisition system, samples data and converts telemetric pressure signals to mm Hg. A barometric pressure reference allows for relation of absolute pressure (relative to vacuum) to ambient atmospheric pressure. Data acquisition software was predefined to sample hemodynamic data for 10-s intervals every 5 minutes. Data collection to file was started 2 hours (T=−2 hours) before drug administration (T=0 hours) and finished after completion of 24 hours (T=24 hours).
Data are expressed as % of baseline values. The baseline value for each animal was calculated and represents the mean blood pressure of the 2 hour period (T=−2 hours to T=0 hours) before the administration of drug or vehicle. For further analysis data were grouped to provide mean for every 0.5 hours. The means of all values obtained for each individual during the period indicated were averaged for each day. Groups were compared by one-way ANOVA with Dunnet's test.
All animals were treated with single oral doses of vehicle or the compound in different dosages (e.g. 0.3, 1.0, 3.0, or 10.0 mg/kg). Application volume was 2 ml/kg body weight. The experiment started at 7:00 a.m. (T=−2 hours), vehicle or drug administration took place at 9.00 a.m. (=0 hours) and registration period was 24 hours. For analysis, data were grouped to provide half-hourly averages.

[3] = test system: healthy mice; conditions: cited from earlier work
[4] = 0.1 mg/kg p.o. 30 min before T1, 24 h interval
[5] = 0.3 mg/kg p.o. 30 min before T1, 24 h interval
[6] = 1.0 mg/kg p.o. 30 min before T1, 24 h interval

Row | Structure (SMILES) | memory performance, discrimination index (d2), compared with chance level (d2=0) ([1]; 0.03 mg/kg p.o. 30 min before T1, 24 h interval) | memory performance, discrimination index (d2), compared with chance level (d2=0) [1, 4] | memory performance, discrimination index (d2), compared to the vehicle condition [1, 4] | memory performance, discrimination index (d2), compared with chance level (d2=0) [1, 5] | memory performance, discrimination index (d2), compared to the vehicle condition [1, 5] | memory performance, discrimination index (d2), compared with chance level (d2=0) [1, 6] | memory performance, discrimination index (d2), compared to the vehicle condition [1, 6] | dose with the most prominent effect in the memory test [1] [mg/kg] | mean arterial blood pressure (MAP) compared to vehicle ([2]; 1.0 mg/kg single oral dose) | mean arterial blood pressure (MAP) compared to vehicle ([2]; 3.0 mg/kg single oral dose) | mean arterial blood pressure (MAP) compared to vehicle ([2]; 10.0 mg/kg single oral dose) | effect on mean arterial blood pressure (MAP) over the dose range [2] | mean arterial blood pressure (MAP) compared to vehicle ([2]; 0.3 mg/kg single oral dose) | spatial memory ([3]; higher doses 0.1-0.3 mg/kg) | spatial memory ([3]; lower dose 0.01 mg/kg) | spatial memory ([3]; single dose of 0.03 mg/kg)
1 | C[C@H]([C@H](C(=O)Nc1cc(C(CC(=O)O)C2CC2)ccc1Cl)c1ccc(Cl)cc1)C(F)(F)F (stereo partly drawn) [compound of formula (1), 3-(4-chloro-3-{[(2S,3R)-2-(4-chlorophenyl)-4,4,4-trifluoro-3-methylbutanoyl]amino}phenyl)-3-cyclopropylpropanoic acid] | improved memory performance | improved memory performance | significant higher memory performance | improved memory performance | significant higher memory performance | improved memory performance | significant higher memory performance | 0.3 | no significant decrease | no significant decrease | significantly lowered | dose-dependent effect | – | – | – | –
2 | O=C(O)CCCCN(CCc1cc(F)ccc1OCc1ccc(-c2ccc(C(F)(F)F)cc2)cc1)Cc1ccc(C(=O)O)cc1 [compound of formula (2), 4-({(4-carboxybutyl)[2-(5-fluoro-2-{[4′-(trifluoromethyl)[1,1′-biphenyl]-4-yl]methoxy}phenyl)ethyl]amino}methyl)benzoic acid] | – | improved memory performance | – | improved memory performance | significant higher memory performance | improved memory performance | significant higher memory performance | – | – | – | – | – | – | – | – | –
3 | COC(=O)Nc1c(N)nc(-c2nn(Cc3ccccc3F)c3ncc(F)cc23)nc1N [compound of formula (5), methyl{4,6-diamino-2-[5-fluoro-1-(2-fluorobenzyl)-1H-pyrazolo[3,4-b]pyridine-3-yl]pyrimidin-5-yl}carbamate] | – | improved memory performance | – | improved memory performance | significant higher memory performance | improved memory performance | significant higher memory performance | 0.3 | significantly lowered | significantly lowered | – | dose-dependent effect | no significant decrease | – | – | –
4 | COC(=O)N(C)c1c(N)nc(-c2nn(Cc3ccccc3F)c3ncccc23)nc1N [Riociguat] | – | – | – | – | – | – | – | – | – | – | – | – | – | no significant effect | no significant effect | able to enhance spatial memory
